Source: ChEMBL document CHEMBL1201862, “PubChem BioAssay data set” (2004)
Activity calls are given as the source filed them. For most assays here, no stated cut-off is given here; in the data, actives have a measured IC50 and inactives only a lower limit.

Assays:
[1] = molecular target: T1, Dual specificity protein phosphatase 3 (Homo sapiens, UniProt P51452); test: VHR1 inhibitor Ki determination, SAR follow-up, biochemical, colorimetric (AID 2004)
[2] = molecular target: T2, Ubiquitin-conjugating enzyme E2 N (Homo sapiens, UniProt P61088); assay type: functional
T2 sequence (P61088 whole entry): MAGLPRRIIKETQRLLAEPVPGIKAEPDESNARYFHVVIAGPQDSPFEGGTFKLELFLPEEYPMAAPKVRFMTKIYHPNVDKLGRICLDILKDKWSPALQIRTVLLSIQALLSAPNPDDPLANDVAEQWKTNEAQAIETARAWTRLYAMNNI

[3] = molecular target: T3, Bcl-2-related protein A1 (Mus musculus, UniProt Q07440); assay type: functional;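 further: confirmatory dose–response counterscreen on Bfl-1, used to check hits from a UBC13 polyubiquitin inhibitor campaign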
T3 sequence (Q07440 whole entry): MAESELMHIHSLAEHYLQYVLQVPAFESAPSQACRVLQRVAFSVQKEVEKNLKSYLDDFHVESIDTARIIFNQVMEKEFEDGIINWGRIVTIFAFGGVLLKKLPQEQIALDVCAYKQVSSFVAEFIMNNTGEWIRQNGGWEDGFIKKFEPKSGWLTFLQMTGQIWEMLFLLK

[4] = molecular target: T2, Ubiquitin-conjugating enzyme E2 N; assay type: functional; remark: listed apart in the source
[5] = molecular target: Beta-galactosidase (Escherichia coli, UniProt Q8VNN2); test: beta-galactosidase enzyme inhibitors and activators, dose response, artefact control for CCR6 antagonist project, biochemical, E. coli enzyme, set 3 (AID 504712); assay type: functional
Chain of Beta-galactosidase (Q8VNN2 whole entry): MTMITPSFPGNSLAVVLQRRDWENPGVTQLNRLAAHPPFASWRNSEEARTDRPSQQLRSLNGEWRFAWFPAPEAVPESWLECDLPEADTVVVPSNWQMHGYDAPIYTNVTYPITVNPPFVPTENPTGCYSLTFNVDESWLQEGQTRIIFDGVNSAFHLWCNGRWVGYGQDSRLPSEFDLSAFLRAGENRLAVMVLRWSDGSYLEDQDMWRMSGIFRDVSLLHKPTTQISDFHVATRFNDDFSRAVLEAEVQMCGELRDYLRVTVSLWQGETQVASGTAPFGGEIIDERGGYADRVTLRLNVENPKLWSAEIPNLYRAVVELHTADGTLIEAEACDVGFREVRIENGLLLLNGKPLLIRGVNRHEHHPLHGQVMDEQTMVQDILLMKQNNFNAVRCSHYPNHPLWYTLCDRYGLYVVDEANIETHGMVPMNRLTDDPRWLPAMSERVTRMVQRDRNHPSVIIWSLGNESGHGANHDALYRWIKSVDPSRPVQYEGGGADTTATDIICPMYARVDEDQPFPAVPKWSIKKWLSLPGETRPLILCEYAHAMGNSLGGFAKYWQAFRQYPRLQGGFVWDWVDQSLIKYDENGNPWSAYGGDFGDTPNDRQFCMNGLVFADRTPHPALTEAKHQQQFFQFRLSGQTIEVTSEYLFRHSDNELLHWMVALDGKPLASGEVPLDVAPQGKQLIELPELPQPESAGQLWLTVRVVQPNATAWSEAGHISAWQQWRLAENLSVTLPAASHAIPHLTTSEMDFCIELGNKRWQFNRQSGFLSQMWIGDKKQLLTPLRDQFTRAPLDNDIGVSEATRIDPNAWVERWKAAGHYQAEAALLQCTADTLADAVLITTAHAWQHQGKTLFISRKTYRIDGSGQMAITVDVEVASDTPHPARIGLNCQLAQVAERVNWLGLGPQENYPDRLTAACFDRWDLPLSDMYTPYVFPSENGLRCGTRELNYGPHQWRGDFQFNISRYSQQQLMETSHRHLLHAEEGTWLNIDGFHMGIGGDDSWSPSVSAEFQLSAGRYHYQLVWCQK

[6] = molecular target: T4, Polyadenylate-binding protein 1 (Homo sapiens, UniProt P11940); test: PABP poly(A) RNA binding inhibitors, primary screen, biochemical, fluorescence polarization, uHTS (AID 2014)
T4 sequence (P11940 whole entry): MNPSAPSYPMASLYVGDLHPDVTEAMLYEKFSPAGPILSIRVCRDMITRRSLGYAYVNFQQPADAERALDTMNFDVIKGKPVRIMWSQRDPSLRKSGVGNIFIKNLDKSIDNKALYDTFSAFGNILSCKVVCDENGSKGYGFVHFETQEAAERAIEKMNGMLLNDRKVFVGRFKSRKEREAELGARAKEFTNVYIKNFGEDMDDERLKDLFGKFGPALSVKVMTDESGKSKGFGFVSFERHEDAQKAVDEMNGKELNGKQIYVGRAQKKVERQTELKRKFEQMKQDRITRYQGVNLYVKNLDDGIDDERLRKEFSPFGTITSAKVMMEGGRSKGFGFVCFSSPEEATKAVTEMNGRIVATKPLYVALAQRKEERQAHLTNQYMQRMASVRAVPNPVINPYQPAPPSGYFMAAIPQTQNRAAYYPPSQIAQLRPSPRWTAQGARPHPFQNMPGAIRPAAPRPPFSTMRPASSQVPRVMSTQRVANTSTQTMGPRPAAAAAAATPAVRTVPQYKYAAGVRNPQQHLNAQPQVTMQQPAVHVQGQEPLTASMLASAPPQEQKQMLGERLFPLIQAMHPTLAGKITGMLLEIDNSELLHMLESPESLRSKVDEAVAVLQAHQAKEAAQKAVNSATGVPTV

[7] = molecular target: T5, DNA dC->dU-editing enzyme APOBEC-3G (Homo sapiens, UniProt Q9HC16); test: SAR analysis of small molecule inhibitors of APOBEC3G DNA Deaminase via a fluorescence-based single-stranded DNA deaminase assay - Set 2.; assay type: functional; conditions: read-out: IC50_Mean
T5 sequence (Q9HC16 whole entry): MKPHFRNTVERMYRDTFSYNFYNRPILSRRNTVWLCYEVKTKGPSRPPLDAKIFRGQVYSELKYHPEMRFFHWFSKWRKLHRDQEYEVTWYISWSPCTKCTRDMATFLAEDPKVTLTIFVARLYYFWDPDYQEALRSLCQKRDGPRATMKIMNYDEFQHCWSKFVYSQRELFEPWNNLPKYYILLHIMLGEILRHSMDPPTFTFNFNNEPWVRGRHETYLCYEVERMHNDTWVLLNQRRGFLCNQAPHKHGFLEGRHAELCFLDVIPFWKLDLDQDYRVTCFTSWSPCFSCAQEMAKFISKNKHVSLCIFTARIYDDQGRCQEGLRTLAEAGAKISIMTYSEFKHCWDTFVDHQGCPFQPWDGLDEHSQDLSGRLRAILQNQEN

[8] = molecular target: T6, DNA dC->dU-editing enzyme APOBEC-3A (Homo sapiens, UniProt P31941); test: SAR analysis of small molecule inhibitors of APOBEC3A DNA Deaminase via a fluorescence-based single-stranded DNA deaminase assay.; assay type: functional; conditions: read-out: IC50_Mean
T6 sequence (P31941 whole entry): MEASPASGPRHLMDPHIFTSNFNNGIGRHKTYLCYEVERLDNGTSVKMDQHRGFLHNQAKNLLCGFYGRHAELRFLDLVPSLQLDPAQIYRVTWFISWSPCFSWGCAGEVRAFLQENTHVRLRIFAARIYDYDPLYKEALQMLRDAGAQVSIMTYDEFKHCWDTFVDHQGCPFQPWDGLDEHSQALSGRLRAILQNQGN

[9] = molecular target: T6, DNA dC->dU-editing enzyme APOBEC-3A; test: Dose Response confirmation of small molecule APOBEC3A DNA Deaminase Inhibitors via a fluorescence-based single-stranded DNA deaminase assay. [Related pubchem assays (depositor defined):AID493011, AID493024]; assay type: functional
[10] = molecular target: T4, Polyadenylate-binding protein 1; test: PABP inhibition in translation initiation, SAR follow-up (AID 435018); assay type: functional
[11] = molecular target: T5, DNA dC->dU-editing enzyme APOBEC-3G; assay type: functional
[12] = molecular target: T5, DNA dC->dU-editing enzyme APOBEC-3G; test: APOBEC3G deaminase inhibitors, SAR follow-up, biochemical, fluorescence, single-stranded DNA substrate (AID 602136); assay type: functional; conditions: read-out: IC50_Mean
[13] = molecular target: T7, Eukaryotic translation initiation factor 4H (Homo sapiens, UniProt Q15056); test: eIF4H inhibition in translation initiation, SAR follow-up (AID 435011); assay type: functional
[14] = molecular target: T6, DNA dC->dU-editing enzyme APOBEC-3A; test: SAR analysis of small molecule inhibitors of APOBEC3A DNA Deaminase via a fluorescence-based single-stranded DNA deaminase assay - Set 2.; assay type: functional; conditions: read-out: IC50_Mean
[15] = molecular target: T7, Eukaryotic translation initiation factor 4H; test: human eIF4H binding inhibitors, primary screen, translation initiation inhibitor project, biochemical, uHTS, fluorescence polarization (AID 2012)
[16] = molecular target: G-protein coupled receptor 55 (Homo sapiens, UniProt Q9Y2T6); test: GPR55 agonists via beta-arrestin recruitment, primary screen, imaging, U2OS cells, beta-arrestin-GFP redistribution (AID 1961); assay type: functional
[17] = molecular target: Voltage-dependent T-type calcium channel subunit alpha-1H (Homo sapiens, UniProt O95180); test: Cav3.2 T-type channel inhibitors, synthesized analogs, SAR follow-up, cell-based, synthetic library set 2, HEK293 HH8, Fluo-4 (AID 493023); assay type: functional
[18] = molecular target: Delta-type opioid receptor (Homo sapiens, UniProt P41143); test: SAR Analysis of Antagonists of the DOR Receptor using an Image-Based Assay - Set 3. [Related pubchem assays (depositor defined):AID1777, AID1785]; assay type: functional;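 further: U2OS cells expressing DOR1 and beta-arrestin GFP stimulated with 100 nM SNC80; imaging of GFP-tagged beta-arrestin moving into spots after receptor activation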
Chain of Delta-type opioid receptor (P41143 whole entry): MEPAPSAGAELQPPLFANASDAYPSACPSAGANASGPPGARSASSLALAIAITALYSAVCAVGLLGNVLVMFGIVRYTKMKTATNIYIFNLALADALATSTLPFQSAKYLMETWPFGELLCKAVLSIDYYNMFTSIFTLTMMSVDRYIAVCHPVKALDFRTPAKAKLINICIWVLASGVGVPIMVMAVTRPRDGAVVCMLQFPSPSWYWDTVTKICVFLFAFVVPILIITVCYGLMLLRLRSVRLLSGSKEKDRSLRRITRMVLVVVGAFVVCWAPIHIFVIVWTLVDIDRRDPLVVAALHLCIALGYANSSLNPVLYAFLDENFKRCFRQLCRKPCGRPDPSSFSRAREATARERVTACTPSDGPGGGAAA

[19] = molecular target: Mu-type opioid receptor (Homo sapiens, UniProt P35372); test: SAR Analysis of Antagonists of the MOR Receptor using an Image-Based Assay - Set 3. [Related pubchem assays (depositor defined):AID1777, AID1785, AID1786, AID1966, AID2133, AID2136, AID2284, AID2285, AID2420]; assay type: functional
Chain of Mu-type opioid receptor (P35372 whole entry): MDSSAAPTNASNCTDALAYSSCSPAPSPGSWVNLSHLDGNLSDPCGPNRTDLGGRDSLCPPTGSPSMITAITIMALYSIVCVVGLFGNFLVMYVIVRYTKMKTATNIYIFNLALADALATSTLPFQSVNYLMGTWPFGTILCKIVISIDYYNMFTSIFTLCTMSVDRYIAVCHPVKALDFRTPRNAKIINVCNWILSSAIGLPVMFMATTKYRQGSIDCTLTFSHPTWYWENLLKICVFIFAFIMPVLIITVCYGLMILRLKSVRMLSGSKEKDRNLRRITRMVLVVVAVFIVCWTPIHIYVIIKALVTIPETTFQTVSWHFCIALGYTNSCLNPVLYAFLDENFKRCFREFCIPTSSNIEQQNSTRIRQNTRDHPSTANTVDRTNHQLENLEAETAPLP

[20] = molecular target: T8, Kappa-type opioid receptor (Homo sapiens, UniProt P41145); test: SAR analysis of small molecule antagonists of the kappa opioid receptor via a luminescent beta-arrestin assay - Set 4. [Related pubchem assays (depositor defined):AID1777, AID1778, AID1785, AID1786, AID1966, AID2133, AID2136, AID2285]; assay type: functional
T8 sequence (P41145 whole entry): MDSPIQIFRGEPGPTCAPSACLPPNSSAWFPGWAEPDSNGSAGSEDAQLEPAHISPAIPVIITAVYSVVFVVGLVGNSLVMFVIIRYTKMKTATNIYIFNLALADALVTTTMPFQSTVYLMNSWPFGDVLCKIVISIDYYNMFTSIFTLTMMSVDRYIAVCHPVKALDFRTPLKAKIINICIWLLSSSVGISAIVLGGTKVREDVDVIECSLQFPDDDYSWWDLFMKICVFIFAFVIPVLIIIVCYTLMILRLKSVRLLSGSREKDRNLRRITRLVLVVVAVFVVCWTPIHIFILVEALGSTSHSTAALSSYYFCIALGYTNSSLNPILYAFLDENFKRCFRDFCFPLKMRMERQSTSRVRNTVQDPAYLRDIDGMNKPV

[21] = molecular target: T8, Kappa-type opioid receptor; test: SAR analysis of Antagonists of the Kappa Opioid Receptor (KOR) using an Image-Based Assay - Set 4. [Related pubchem assays (depositor defined):AID1777, AID1785]; assay type: functional
[22] = molecular target: T9, Tyrosine-protein phosphatase non-receptor type 7 (Homo sapiens, UniProt P35236); test: redox-dependent HePTP inhibition, mechanism study, biochemical, fluorescence (AID 2068); assay type: functional
T9 sequence (P35236 whole entry): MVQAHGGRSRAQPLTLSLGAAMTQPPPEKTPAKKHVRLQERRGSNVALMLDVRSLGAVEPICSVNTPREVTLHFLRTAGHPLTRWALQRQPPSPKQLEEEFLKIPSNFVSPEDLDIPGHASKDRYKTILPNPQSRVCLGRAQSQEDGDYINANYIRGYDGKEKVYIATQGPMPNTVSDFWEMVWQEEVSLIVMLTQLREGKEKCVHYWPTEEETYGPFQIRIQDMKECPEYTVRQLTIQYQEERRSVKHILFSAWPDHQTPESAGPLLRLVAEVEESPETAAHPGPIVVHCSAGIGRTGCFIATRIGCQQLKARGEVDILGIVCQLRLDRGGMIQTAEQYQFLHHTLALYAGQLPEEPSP

[23] = molecular target: T1, Dual specificity protein phosphatase 3; test: SAR VHR1 Fluorescent Assay for In Vitro dose response studies. [Related pubchem assays (depositor defined):AID1654, AID1661, AID1878, AID1992, AID2004, AID2070, AID2085]; assay type: functional
[24] = molecular target: T10, Tyrosine-protein phosphatase non-receptor type 22 (Homo sapiens, UniProt Q9Y2R2); test: SAR LYP1 Fluorescent Assay using OMFP substrate for In Vitro dose response studies - Set 3. [Related pubchem assays (depositor defined):AID1779, AID1784, AID2140, AID2686]; assay type: functional
T10 sequence (Q9Y2R2 whole entry): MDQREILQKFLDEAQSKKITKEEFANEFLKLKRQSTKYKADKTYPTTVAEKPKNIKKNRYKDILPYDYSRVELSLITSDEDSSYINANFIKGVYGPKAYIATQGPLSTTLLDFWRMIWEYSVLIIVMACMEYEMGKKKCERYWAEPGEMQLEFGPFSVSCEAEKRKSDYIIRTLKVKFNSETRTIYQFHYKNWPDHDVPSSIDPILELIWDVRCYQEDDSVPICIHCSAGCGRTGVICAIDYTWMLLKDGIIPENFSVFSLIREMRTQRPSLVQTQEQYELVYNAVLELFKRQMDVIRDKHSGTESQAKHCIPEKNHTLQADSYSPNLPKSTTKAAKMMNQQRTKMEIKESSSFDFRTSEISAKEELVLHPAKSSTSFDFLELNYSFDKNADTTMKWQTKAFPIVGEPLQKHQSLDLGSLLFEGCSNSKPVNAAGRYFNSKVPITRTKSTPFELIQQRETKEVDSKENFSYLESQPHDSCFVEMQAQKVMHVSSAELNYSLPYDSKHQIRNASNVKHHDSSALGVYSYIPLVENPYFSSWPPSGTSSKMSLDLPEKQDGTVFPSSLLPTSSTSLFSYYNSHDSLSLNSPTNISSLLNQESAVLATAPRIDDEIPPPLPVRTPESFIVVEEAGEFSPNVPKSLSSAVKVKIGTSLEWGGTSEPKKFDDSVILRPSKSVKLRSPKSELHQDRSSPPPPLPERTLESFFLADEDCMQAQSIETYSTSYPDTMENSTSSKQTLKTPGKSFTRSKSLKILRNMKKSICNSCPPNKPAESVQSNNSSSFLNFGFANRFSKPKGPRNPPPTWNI

[25] = molecular target: T10, Tyrosine-protein phosphatase non-receptor type 22; test: LYP (PTPN22) phosphatase inhibitor potency, SAR follow-up, biochemical, pCAP fluorogenic substrate, fluorescence, set 3 (AID 449727); assay type: functional
[26] = molecular target: T1, Dual specificity protein phosphatase 3; test: SAR VHR1 absorbance Assay for In Vitro dose response studies. [Related pubchem assays (depositor defined):AID1654, AID1661, AID1878, AID1992, AID2004]
[27] = molecular target: T9, Tyrosine-protein phosphatase non-receptor type 7; test: HePTP (PTPN7) phosphatase inhibitor potency, SAR follow-up, biochemical, set 2 (AID 449736); assay type: functional
[28] = molecular target: Tyrosine-protein phosphatase non-receptor type 12 (Homo sapiens, UniProt Q05209); test: SAR Selectivity Analysis of small molecule inhibitors of PEST using pCAP in a fluorescence assay. [Related pubchem assays (depositor defined):AID1779, AID1784, AID2135]; assay type: functional
Chain of Tyrosine-protein phosphatase non-receptor type 12 (Q05209 whole entry): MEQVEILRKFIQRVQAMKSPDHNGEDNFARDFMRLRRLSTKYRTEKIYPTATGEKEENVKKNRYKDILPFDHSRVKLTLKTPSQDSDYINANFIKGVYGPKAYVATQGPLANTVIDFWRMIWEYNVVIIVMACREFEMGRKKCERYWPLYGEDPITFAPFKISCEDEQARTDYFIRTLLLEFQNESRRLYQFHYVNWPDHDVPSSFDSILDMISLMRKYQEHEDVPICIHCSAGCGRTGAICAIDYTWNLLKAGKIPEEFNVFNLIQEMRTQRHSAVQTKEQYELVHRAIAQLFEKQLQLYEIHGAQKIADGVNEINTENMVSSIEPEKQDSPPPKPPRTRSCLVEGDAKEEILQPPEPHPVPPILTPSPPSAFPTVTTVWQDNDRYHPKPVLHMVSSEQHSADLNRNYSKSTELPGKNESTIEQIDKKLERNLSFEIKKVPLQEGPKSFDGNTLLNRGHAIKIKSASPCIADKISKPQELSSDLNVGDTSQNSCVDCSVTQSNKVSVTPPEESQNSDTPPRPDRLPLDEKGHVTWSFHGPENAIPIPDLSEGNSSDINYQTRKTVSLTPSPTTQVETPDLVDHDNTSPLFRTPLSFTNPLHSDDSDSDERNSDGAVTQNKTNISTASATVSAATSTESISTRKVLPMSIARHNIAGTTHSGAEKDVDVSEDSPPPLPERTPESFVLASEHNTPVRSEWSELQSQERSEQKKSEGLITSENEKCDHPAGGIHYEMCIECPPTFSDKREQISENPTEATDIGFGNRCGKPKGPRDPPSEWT

[29] = molecular target: T11, Dual specificity protein phosphatase 6 (Rattus norvegicus, UniProt Q64346); assay type: functional;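 further: confirmatory in vitro dose-response testing of MKP-3 inhibition; recombinant His-tagged MKP-3 made in E. coli BL21 with OMFP substrate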
T11 sequence (Q64346 whole entry): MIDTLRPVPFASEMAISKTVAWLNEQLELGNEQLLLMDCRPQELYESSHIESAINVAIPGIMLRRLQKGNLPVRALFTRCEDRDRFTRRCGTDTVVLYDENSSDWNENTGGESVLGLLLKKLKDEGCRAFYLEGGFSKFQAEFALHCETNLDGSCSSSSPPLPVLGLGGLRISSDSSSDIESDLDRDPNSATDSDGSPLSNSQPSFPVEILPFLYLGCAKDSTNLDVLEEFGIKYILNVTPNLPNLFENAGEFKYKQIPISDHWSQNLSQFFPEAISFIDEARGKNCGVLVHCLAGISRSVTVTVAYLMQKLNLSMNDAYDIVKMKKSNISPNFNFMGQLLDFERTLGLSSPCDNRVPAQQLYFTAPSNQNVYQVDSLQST

[30] = molecular target: T8, Kappa-type opioid receptor; test: SAR analysis of Antagonists of the Kappa Opioid Receptor (KOR) using an Image-Based Assay - Set 3. [Related pubchem assays (depositor defined):AID1777, AID1785]; assay type: functional
[31] = molecular target: T8, Kappa-type opioid receptor; test: SAR analysis of small molecule antagonists of the kappa opioid receptor via a luminescent beta-arrestin assay - Set 3. [Related pubchem assays (depositor defined):AID1777, AID1778, AID1785, AID1786, AID1966, AID2133, AID2136, AID2285, AID2495]; assay type: functional
[32] = molecular target: Tumor necrosis factor (Homo sapiens, UniProt P01375); test: TNFa-triggered NF-kB activation inhibitors, SAR follow-up, cell-based, revised (AID 2337); assay type: functional
Chain of Tumor necrosis factor (P01375 whole entry, the tested form may be a part): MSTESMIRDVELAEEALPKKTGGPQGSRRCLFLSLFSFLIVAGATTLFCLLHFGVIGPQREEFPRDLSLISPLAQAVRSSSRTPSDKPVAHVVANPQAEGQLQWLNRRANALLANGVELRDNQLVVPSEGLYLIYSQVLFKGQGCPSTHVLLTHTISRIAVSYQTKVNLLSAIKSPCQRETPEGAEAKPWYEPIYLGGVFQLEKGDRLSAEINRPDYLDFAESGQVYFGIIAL

[33] = molecular target: Nucleotide-binding oligomerization domain-containing protein 1 (Homo sapiens, UniProt Q9Y239); test: NOD1 signaling inhibitors, SAR follow-up, revised (AID 2333); assay type: functional
[34] = tested on: HEK293; test: cells; conditions: Homo sapiens;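 further: cells exposed to compound for 14 hours overnight before viability readout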

T1 sequence (P51452 whole entry): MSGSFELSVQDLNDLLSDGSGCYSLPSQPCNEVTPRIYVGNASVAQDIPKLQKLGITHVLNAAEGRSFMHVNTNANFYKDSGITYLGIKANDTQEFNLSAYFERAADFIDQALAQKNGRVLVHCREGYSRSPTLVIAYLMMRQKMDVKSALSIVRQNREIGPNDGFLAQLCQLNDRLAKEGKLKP

COc1ccccc1CC(=N)NOC(=O)c1ccco1
Ki [1]: 48.4 µM (inactive)

NC(=O)c1ccc(Cn2c(C(=O)c3cc(Cl)c(N)c(Cl)c3)c3ccccc3[n+]2[O-])cc1
IC50 [2]: > 20 µM (inactive) | IC50 [3]: > 20 µM (inactive) | IC50 [4]: 10.8 µM (active)

CCCCC(=O)NNC=C1C(=O)N(CC)C(=S)N(CC)C1=O
IC50 [5]: > 66.6 µM (inactive)

CCOC(=O)c1ccc2c(c1)N(C)C(=O)c1ccccc1S2
IC50 [6]: 8.14 µM (active) | IC50 [7]: > 99 µM (inactive) | IC50 [8]: 16.6 µM (inactive) | IC50 [9]: 1.55 µM (active) | IC50 [10]: 22.2 µM (active) | IC50 [11]: > 100 µM (inactive) | IC50 [12]: 8.67 µM (active) | IC50 [13]: 11.7 µM (active) | IC50 [14]: 12.9 µM (inactive) | IC50 [15]: > 100 µM (inactive)

COc1cc(/C=C2\C(=O)ON=C2c2ccccc2)cc(Cl)c1O
EC50 [16]: > 32 µM (inactive)

O=C(COc1ccccc1Cl)N[C@@H]1CCCN(Cc2ccccc2)C1
EC50 [17]: 10 µM (active)

CC(C)c1ccc(S(=O)(=O)NCc2ccc(C(=O)NCCN(Cc3ccccc3)C(C)C)cc2)cc1
IC50 [18]: > 32 µM (inactive) | IC50 [19]: 0.66 µM (active) | IC50 [20]: 1.57 µM (active) | IC50 [21]: 0.531 µM (active)

Cc1cc(OCC(=O)O)ccc1[S+](C)[O-] (stereo unspecified)
IC50 [22]: > 100 µM (inactive) | IC50 [23]: > 99 µM (inactive) | IC50 [24]: > 100 µM (inactive) | IC50 [25]: > 100 µM (inactive) | IC50 [26]: > 100 µM (inactive) | IC50 [27]: > 100 µM (inactive) | IC50 [28]: > 100 µM (inactive) | IC50 [29]: > 99 µM (inactive)

O=C(Cn1c(=O)c2cccn2c2cccnc21)NCCCN1CCN(Cc2ccccc2)CC1
IC50 [30]: 11 µM (inactive) | IC50 [31]: > 20 µM (inactive) | IC50 [18]: > 32 µM (inactive) | IC50 [19]: > 32 µM (inactive)

O=C(Nc1ccc(Cl)c([N+](=O)[O-])c1)c1ccc2ccccc2c1O
IC50 [32]: 0.87 µM (active) | IC50 [33]: 0.692 µM (active) | IC50 [34]: 4.04 µM (active)
